From patent US5480894A, “3-hydroxypyridin-4-one derivatives as chelating agents” (British Technology Group Limited, priority 1992, dated 1996)
Values joined by “and” are separate entries in the source; they are usually repeats but may differ in a detail not shown here. Equal values may be shown once. Read-outs that look alike come from different tables or passages of the source.

Assay: Partition coefficient Kpart between n-octanol and aqueous tris hydrochloride
Assay type: physicochemical
Conditions: n-octanol / aqueous tris hydrochloride (20 mM, pH 7.4); for logD: octanol/tris hydrochloride 20 mm
Experimental: The partition coefficients of four or five samples of each of the compounds of Examples 2 and 4 were measured using essentially the procedure described in Example 25 of UK Patent No. 2 136 807. For comparative purposes a similar measurement was made for the compound 1-(2-acetoxyethyl)-2-ethyl-3-hydroxypyridin-4-one which was prepared by an analogous procedure to that of Example 5 using acetyl chloride in place of isobutyryl chloride. The results obtained for the partition coefficient Kpart, being the ratio (concentration of compound in n-octanol)/concentration of compound in aqueous phase on partition between n-octanol and aqueous tris hydrochloride (20 mM, pH 7.4), are shown in the Table.

[1] = pH 7.4, mean of four or five samples, read-out: partition coefficient Kpart, Mean ± S.E. (converted)

Row | partition coefficient Kpart (concentration in n-octanol / concentration in aqueous phase), individual samples (individual samples 1-5, listed as (CH3)2 CHCOO) | logD (individual samples 1-5, read-out: partition coefficient Kpart (concentration in n-octanol / concentration in aqueous phase), individual samples (converted)) | partition coefficient Kpart, Mean ± S.E. (mean of four or five samples) | SMILES | partition coefficient Kpart (concentration in n-octanol / concentration in aqueous phase), individual samples (individual samples 1-5) | logD [1] | partition coefficient Kpart (concentration in n-octanol / concentration in aqueous phase), individual samples (individual samples 1-5, listed as (CH3)3 CCOO)
1 |  |  |  | CCc1c(O)c(=O)ccn1CCOC(C)=O [CH3 COO, 1-(2-acetoxyethyl)-2-ethyl-3-hydroxypyridin-4-one, reference compound] | 1.500 and 0.948 and 0.940 and 0.962 | 0.0366 | 
2 | 4.541 and 4.224 and 4.797 | 0.699 |  | CCc1c(O)c(=O)ccn1CCOC(=O)C(C)C [Example 4, 2-ethyl-3-hydroxy-1-[2-(α-methylpropionyloxy)ethyl]pyridin-4-one] |  | 0.667 | 
3 |  |  | 6.113 ± 1.622 | CCc1c(O)c(=O)ccn1CCOC(=O)C(C)(C)C [Example 2, 2-ethyl-3-hydroxy-1-(2-pivaloyloxyethyl)pyridin-4-one] |  |  | 5.104 and 7.992 and 3.870 and 6.742 and 6.855
